25 compounds from patent publication US20240327354A1, “GRAM-NEGATIVE BACTERIA EFFLUX PUMP INHIBITORS” (INSTITUT NATIONAL DE LA SANTÉ ET DE LA RECHERCHE MÉDICALE, priority 2021, published 2024) can be followed below.

One assay concerns E. coli BW25113. Put plainly: Assay 1: growth inhibition of E. coli by sub-inhibitory pyridomycin in combination with examples (resazurin reduction). The class given is cell-based, Escherichia coli. To be noted: read-out: EC50 on E. coli with 8 μg/mL of pyridomycin, 8 μg/mL pyridomycin, 5 h, 37° C. In a few lines:
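E. coli BW25113 at OD600 0.0004–0.001 was grown in CAMHB at 37 °C. Viability was read by resazurin reduction fluorescence (Ex 530/Em 590 nm). EC50 is the concentration preventing 50% of resazurin turnover relative to untreated bacteria.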

Assay [1] relates to A. baumannii LMG 1025 (ATCC 17978). Description: Assay 3: growth inhibition of A. baumannii by sub-inhibitory novobiocin in combination with examples (resazurin reduction). The class given is cell-based, Acinetobacter baumannii. An excerpt: (§1) Escherichia coli BW25113 (CGSC 7636) and its derivatives E. coli ΔtolC (JW5503-1, ΔtolC732::kan, CGSC 11430), E. coli ΔacrA (JW0452-3, ΔacrA748::kan, CGSC 11843) and E. coli ΔacrB (JW0451-2, ΔacrB747::kan, CGSC 8609) were obtained from E. coli Genetic Stock Center (CGSC, New Haven, Connecticut) and originated from the Keio Collection (Baba T et al, Mol Sys Biol, 2006). Klebsiella pneumoniae (LMG 2095/ATCC 13883) and K. pneumoniae (ATCC43816), Pseudomonas aeruginosa (PAO1), Acinetobacter baumannii (LMG 1025, ATCC 17978), were obtained from ATCC or BCCM/LMG Bacteria Collection. All bacteria were grown and tested in cation-adjusted Mueller-Hinton broth (CAMHB; BD Difco) at 37° C. For conservation, log phase bacteria were frozen (−80° C.) in CAMHB supplemented with 15% glycerol.
Measurement of growth Inhibition of A. baumannii strains by sub Inhibitory concentrations of novobiocin In combination with examples 1-137
(§2) For the evaluation of the dose dependent activity of examples 1-137, their ability to boost the antibacterial activity of sub-inhibitory concentrations novobiocin was determined. Briefly, A. baumannii LMG 1025 (ATCC 17978) were diluted from frozen or growing stocks to an OD600 of 0.001 in CAMHB. The bacterial suspension was then used as such (no—antibiotic control to evaluate EPI activity), or spiked with novobiocin at a final concentration of 5 μg/mL. Bacteria were then added to microplates carrying serial dilutions of the compounds examples 1-137, and incubated for (5 h or 24 h, 37° C.). Bacterial viability was evaluated using the resazurin reduction assay, and measured by fluorescence (POLARstar Omega, BMG Labtech: Ex: 530 nm Em: 590 nm). […] were defined as the compound concentration that prevented 90% of resazurin turnover compared to the non-treated bacteria.
On the technique in general: The colour change of resazurin is a common sign of viable cells or microbes.

Assay [2] shares this test system. Description: Assay 2: growth inhibition of A. baumannii by sub-inhibitory chloramphenicol in combination with examples (resazurin reduction). In kind it is cell-based, Acinetobacter baumannii. The conditions noted are these: read-out: EC90 on A. baumannii with 10 μg/mL of chloramphenicol, 10 μg/mL chloramphenicol, 5 h or 24 h, 37° C.
From the text: as §1
Measurement of Growth Inhibition of A. baumannii Strains by Sub Inhibitory Concentrations of Chloramphenicol in Combination with Examples 1-137
as §2, with “concentrations chloramphenicol” for “concentrations novobiocin”, “such (no-antibiotic” for “such (no—antibiotic”, “with chloramphenicol” for “with novobiocin”, “of 10” for “of 5”

Setting [3] is: 5 μg/mL novobiocin, 5 h or 24 h, 37° C., read-out: EC90 on A. baumannii with 5 μg/mL of novobiocin.

Structures can show the parent of a compound that is named as a salt. Where only a bound is given, the exact number is not on record here.

Consider `NCc1cc(-c2ccc3nc(N4CCNCC4)c(Cl)cc3c2)ccc1C(F)(F)F` [Example 129, [5-(3-chloro-2-piperazin-1-yl-6-quinolyl)-2-(trifluoromethyl)phenyl]methanamine;dihydrochloride], for which the EC50 with E. coli BW25113 is < 5 µM. Moreover, the EC90 in assay [1] (setting [3]) was 5 to 100 µM.
Turning to `NCCc1ccc(-c2ccc3nc(N4CCNCC4)c(Cl)cc3c2)cc1` [Example 116, 2-[4-(3-chloro-2-piperazin-1-yl-6-quinolyl)phenyl]ethanamine;dihydrochloride], the EC50 in the assay on E. coli BW25113 was < 5 µM. Besides, the EC90 in assay [1] (setting [3]) lay in the range of 5 to 100 µM.
With `NCc1cccc(-c2ccc3nc(N4CCNCC4)c(Cl)cc3c2)c1` [Example 66, [3-(3-chloro-2-piperazin-1-yl-6-quinolyl)phenyl]methanamine;dihydrochloride], the EC90 in assay [2] and in assay [1] (setting [3]) was 5 to 100 µM throughout. Further, the EC50 in the assay on E. coli BW25113 is < 5 µM.
With `Brc1cnc(N[C@H]2[C@@H]3CNC[C@@H]32)c2ccccc12` [Example 58, N-[(1R,5S)-3-azabicyclo[3.1.0]hexan-6-yl]-4-bromo-isoquinolin-1-amine;hydrochloride], the EC90 in assay [2] and in assay [1] (setting [3]) was 100 to 500 µM each time. Further, the EC50 with E. coli BW25113 was 5 to 100 µM.
For the compound `COc1ccc(-c2ccc3nc(N4CCNCC4)c(Cl)cc3c2)cc1CN` [Example 127, [5-(3-chloro-2-piperazin-1-yl-6-quinolyl)-2-methoxy-phenyl]methanamine;dihydrochloride], the EC50 in the assay with E. coli BW25113 is < 5 µM. Besides, the EC90 in assay [1] (setting [3]) was in the range of 5 to 100 µM.
For the compound `NCc1cc(-c2ccc3nc(N4CCNCC4)c(Cl)cc3c2)ccc1F` [Example 130, [5-(3-chloro-2-piperazin-1-yl-6-quinolyl)-2-fluoro-phenyl]methanamine;dihydrochloride], the EC90 in assay [2] and in assay [1] (setting [3]) was 5 to 100 µM throughout. For the same compound, in the assay on E. coli BW25113, the EC50 was < 5 µM.
Take `C[C@H](N)c1cccc(-c2ccc3nc(N4CCNCC4)c(Cl)cc3c2)c1` [Example 112, (1S)-1-[3-(3-chloro-2-piperazin-1-yl-6-quinolyl)phenyl]ethanamine; dihydrochloride]: the EC50 with E. coli BW25113 is < 5 µM. Also, in assay [1] (setting [3]), the EC90 lay in the range of 5 to 100 µM.
Regarding `NCCc1cccc(C#Cc2cnc(N3CCNCC3)c(Cl)c2)c1` [Example 91, 2-[3-[2-(5-chloro-6-piperazin-1-yl-3-pyridyl)ethynyl]phenyl]ethanamine; 2,2,2-trifluoroacetic acid], the EC50 in the assay on E. coli BW25113 was < 5 µM. Moreover, the EC90 in assay [1] (setting [3]) lay in the range of 5 to 100 µM.
For `Clc1cc2cc(-c3cccc4c3CCNC4)ccc2nc1N1CCNCC1` [Example 133, 3-chloro-2-piperazin-1-yl-6-(1,2,3,4-tetrahydroisoquinolin-5-yl)quinoline;dihydrochloride], in the assay on E. coli BW25113, the EC50 is < 5 µM. Further, the EC90 in assay [1] (setting [3]) is 5 to 100 µM.
With `CN(C)Cc1cccc(-c2ccc3nc(N4CCNCC4)c(Cl)cc3c2)c1` [Example 110, 1-[3-(3-chloro-2-piperazin-1-yl-6-quinolyl)phenyl]-N,N-dimethyl-methanamine;dihydrochloride], the EC50 with E. coli BW25113 was < 5 µM. In addition, the EC90 in assay [1] (setting [3]) was in the range of 5 to 100 µM.
On the same counts, the results for `NCc1ccccc1-c1ccc2nc(N3CCNCC3)c(Cl)cc2c1` [Example 111, [2-(3-chloro-2-piperazin-1-yl-6-quinolyl)phenyl]methanamine;dihydrochloride] are < 5 µM and 5 to 100 µM.
On to `NCc1cc(-c2ccc3nc(N4CCNCC4)c(Cl)cc3c2)ccc1Cl` [Example 128, [2-chloro-5-(3-chloro-2-piperazin-1-yl-6-quinolyl)phenyl]methanamine;dihydrochloride], for which the EC50 in the assay with E. coli BW25113 was < 5 µM. Also, the EC90 in assay [1] (setting [3]) lay in the range of 5 to 100 µM.
On to `NCc1ccc(-c2ccc3nc(N4CCNCC4)c(Cl)cc3c2)cc1` [Example 107, [4-(3-chloro-2-piperazin-1-yl-6-quinolyl)phenyl]methanamine;dihydrochloride], for which the EC50 with E. coli BW25113 was < 5 µM. The EC90 in assay [1] (setting [3]) was 5 to 100 µM.
In the same order, the values of `Cc1ccc(CN)cc1-c1ccc2nc(N3CCNCC3)c(Cl)cc2c1` [Example 119, [3-(3-chloro-2-piperazin-1-yl-6-quinolyl)-4-methyl-phenyl]methanamine;dihydrochloride] are < 5 µM and 5 to 100 µM.
Consider `Cc1ccc(-c2ccc3nc(N4CCNCC4)c(Cl)cc3c2)cc1CN` [Example 126, [5-(3-chloro-2-piperazin-1-yl-6-quinolyl)-2-methyl-phenyl]methanamine;dihydrochloride], for which the EC50 with E. coli BW25113 was < 5 µM. Moreover, the EC90 in assay [1] (setting [3]) is 5 to 100 µM.
`NCc1cc(-c2ccc3nc(N4CCNCC4)c(Cl)cc3c2)cc(C(F)(F)F)c1` [Example 125, [3-(3-chloro-2-piperazin-1-yl-6-quinolyl)-5-(trifluoromethyl)phenyl]methanamine;dihydrochloride]: the EC50 in the assay with E. coli BW25113 was < 5 µM. Moreover, the EC90 in assay [1] (read-out: EC90 on A. baumannii with 5 μg/mL of novobiocin, 5 μg/mL novobiocin, 5 h or 24 h, 37° C.) was 5 to 100 µM.
As for `NCCCCNc1ccc2nc(N3CCNCC3)c(Cl)cc2c1` [Example 105, N′-(3-chloro-2-piperazin-1-yl-6-quinolyl)butane-1,4-diamine;dihydrochloride], the EC50 with E. coli BW25113 was < 5 µM. In addition, the EC90 in assay [1] (setting [3]) lay within 5 to 100 µM.
On to `COc1c(CN)cccc1-c1ccc2nc(N3CCNCC3)c(Cl)cc2c1` [Example 118, [3-(3-chloro-2-piperazin-1-yl-6-quinolyl)-2-methoxy-phenyl]methanamine;dihydrochloride], for which the EC50 in the assay with E. coli BW25113 is < 5 µM. Besides, the EC90 in assay [1] (setting [3]) was in the range of 5 to 100 µM.
On the same counts, the results for `Clc1cc2cc(-c3ccc4c(c3)CNC4)ccc2nc1N1CCNCC1` [Example 135, 3-chloro-6-isoindolin-5-yl-2-piperazin-1-yl-quinoline;dihydrochloride] are < 5 µM and 5 to 100 µM.
As to `Cc1c(CN)cccc1-c1ccc2nc(N3CCNCC3)c(Cl)cc2c1` [Example 117, [3-(3-chloro-2-piperazin-1-yl-6-quinolyl)-2-methyl-phenyl]methanamine;dihydrochloride], in the assay on E. coli BW25113, the EC50 was < 5 µM. Also, the EC90 in assay [1] (setting [3]) was in the range of 5 to 100 µM.
In the case of `Cc1cc(CN)cc(-c2ccc3nc(N4CCNCC4)c(Cl)cc3c2)c1` [Example 123, [3-(3-chloro-2-piperazin-1-yl-6-quinolyl)-5-methyl-phenyl]methanamine;dihydrochloride], the EC50 in the assay on E. coli BW25113 was < 5 µM. In addition, the EC90 in assay [1] (setting [3]) was 5 to 100 µM.
On to `COc1cc(CN)cc(-c2ccc3nc(N4CCNCC4)c(Cl)cc3c2)c1` [Example 124, [3-(3-chloro-2-piperazin-1-yl-6-quinolyl)-5-methoxy-phenyl]methanamine;dihydrochloride], for which the EC50 in the assay with E. coli BW25113 was < 5 µM. The EC90 in assay [1] (setting [3]) was 5 to 100 µM.
For the compound `NCc1ccc(Cl)c(-c2ccc3nc(N4CCNCC4)c(Cl)cc3c2)c1` [Example 121, [4-chloro-3-(3-chloro-2-piperazin-1-yl-6-quinolyl)phenyl]methanamine;dihydrochloride], the EC50 in the assay on E. coli BW25113 was < 5 µM. Further, the EC90 in assay [1] (setting [3]) fell in the range of 5 to 100 µM.
On the same counts, the results for `NCCc1ccccc1C#Cc1cnc(N2CCNCC2)c(Cl)c1` [Example 90, 2-[2-[2-(5-chloro-6-piperazin-1-yl-3-pyridyl)ethynyl]phenyl]ethanamine; 2,2,2-trifluoroacetic acid] are < 5 µM and 5 to 100 µM.
For the compound `COc1ccc(CN)cc1-c1ccc2nc(N3CCNCC3)c(Cl)cc2c1` [Example 120, [3-(3-chloro-2-piperazin-1-yl-6-quinolyl)-4-methoxy-phenyl]methanamine;dihydrochloride], the EC50 with E. coli BW25113 is < 5 µM. Also, the EC90 in assay [1] (setting [3]) lay in the range of 5 to 100 µM.
